Data from PubChem BioAssay AID330 (DTP/NCI, 2004).
Several values for one entry are separate records, joined by “and”; a condition that tells them apart may be missing. Equal values may be shown once. Inconclusive results and toxic doses are left out. How the source made its calls: active means survival T/C of 150% or more; inactive means T/C below 125% in these data.

System: P388 leukemia ip, CD2F1 mice, survival T/C
Assay: NCI In Vivo Anticancer Drug Screen. Data for tumor model P388 Leukemia (intraperitoneal) in CD2F1 (CDF1) mice
Settings: endpoint: median survival time, higher = longer survival
How it was run: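 Mice carrying the transplanted tumor received test compound or vehicle. Survival was recorded in each group, and the value is the treated-group measurement divided by that of the vehicle-treated control group.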

[1] = dose: 12.5 mg/kg/injection, schedule: Q01DX009 (ip), vehicle: saline with Tween-80
[2] = dose: 25.0 mg/kg/injection, schedule: Q01DX009 (ip), vehicle: saline with Tween-80
[3] = dose: 50.0 mg/kg/injection, schedule: Q01DX009 (ip), vehicle: saline with Tween-80
[4] = dose: 200.0 mg/kg/injection, schedule: Q01DX009 (ip), vehicle: saline with Tween-80
[5] = dose: 100.0 mg/kg/injection, schedule: Q01DX009 (ip), vehicle: saline with Tween-80
[6] = dose: 100.0 mg/kg/injection, schedule: Q01DX001 (ip), vehicle: saline with Tween-80
[7] = dose: 200.0 mg/kg/injection, schedule: Q01DX001 (ip), vehicle: saline with Tween-80
[8] = dose: 400.0 mg/kg/injection, schedule: Q01DX001 (ip), vehicle: saline with Tween-80
[9] = dose: 50.0 mg/kg/injection, schedule: Q01DX009 (ip), vehicle: Klucel (hydroxypropylcellulose) (HPC)
[10] = dose: 100.0 mg/kg/injection, schedule: Q01DX009 (ip), vehicle: Klucel (hydroxypropylcellulose) (HPC)
[11] = dose: 200.0 mg/kg/injection, schedule: Q01DX009 (ip), vehicle: Klucel (hydroxypropylcellulose) (HPC)
[12] = dose: 50.0 mg/kg/injection, schedule: Q01DX005 (ip), vehicle: saline with Tween-80
[13] = dose: 100.0 mg/kg/injection, schedule: Q01DX005 (ip), vehicle: saline with Tween-80
[14] = dose: 200.0 mg/kg/injection, schedule: Q01DX005 (ip), vehicle: saline with Tween-80
[15] = dose: 100.0 mg/kg/injection, schedule: Q04DX003 (ip), vehicle: Klucel (hydroxypropylcellulose) (HPC)
[16] = dose: 200.0 mg/kg/injection, schedule: Q04DX003 (ip), vehicle: Klucel (hydroxypropylcellulose) (HPC)
[17] = dose: 100.0 mg/kg/injection, schedule: Q04DX003 (ip), vehicle: saline with Tween-80
[18] = dose: 50.0 mg/kg/injection, schedule: Q01DX005 (ip), vehicle: Klucel (hydroxypropylcellulose) (HPC)
[19] = dose: 100.0 mg/kg/injection, schedule: Q01DX005 (ip), vehicle: Klucel (hydroxypropylcellulose) (HPC)
[20] = dose: 200.0 mg/kg/injection, schedule: Q01DX005 (ip), vehicle: Klucel (hydroxypropylcellulose) (HPC)

Measured: T/C

CC(C)(C)OC(=O)O/N=C(\C#N)c1ccccc1
inactive: [1] 90 % of control | [2] 104 % of control | [3] 100 % of control and 103 % of control | [4] 100 % of control

COC(=O)CCC(=O)Nc1c(C)cccc1C(C)C
inactive: dose: 60.0 mg/kg/injection, schedule: Q01DX005 (ip), vehicle: saline with Tween-80 105 % of control | dose: 120.0 mg/kg/injection, schedule: Q01DX005 (ip), vehicle: saline with Tween-80 99 % of control | dose: 240.0 mg/kg/injection, schedule: Q01DX005 (ip), vehicle: saline with Tween-80 99 % of control

CCC(c1ccc(OC)cc1)C(CC)c1ccc(O)c(CN2CCN(C)CC2)c1 (stereo not drawn)
inactive: [2] 123 % of control | [3] 119 % of control | [5] 119 % of control

O=C(N/N=C/c1cc(Br)cc(Br)c1[O-])c1ccccc1.O=C(N/N=C/c1cc(Br)cc(Br)c1[O-])c1ccccc1.[Fe+2]
inactive: [6] 86 % of control | [7] 86 % of control | [8] 93 % of control

c1ccc2sc(SNC3CCCCC3)nc2c1
inactive: dose: 25.0 mg/kg/injection, schedule: Q01DX009 (ip), vehicle: Klucel (hydroxypropylcellulose) (HPC) 103 % of control | dose: 25.0 mg/kg/injection, schedule: Q04DX002 (ip), vehicle: Klucel (hydroxypropylcellulose) (HPC) 94 % of control | [9] 104 % of control | dose: 50.0 mg/kg/injection, schedule: Q04DX002 (ip), vehicle: Klucel (hydroxypropylcellulose) (HPC) 95 % of control | [10] 100 % of control | dose: 100.0 mg/kg/injection, schedule: Q04DX002 (ip), vehicle: Klucel (hydroxypropylcellulose) (HPC) 94 % of control | dose: 100.0 mg/kg/injection, schedule: Q04DX002 (ip), vehicle: saline 101 % of control | [11] 101 % of control | dose: 200.0 mg/kg/injection, schedule: Q04DX002 (ip), vehicle: saline 109 % of control | dose: 400.0 mg/kg/injection, schedule: Q04DX002 (ip), vehicle: saline 113 % of control

CCOC(=O)N1C(C(=O)c2ccc(C)cc2)N(C2CCCCC2)C(c2ccccc2)N1C(=O)OCC (stereo not drawn)
inactive: dose: 400.0 mg/kg/injection, schedule: Q01DX009 (ip), vehicle: saline with Tween-80 86 % of control

CCOC(=O)Cn1cnc2sc3c(c2c1=O)CCCC3
inactive: [12] 100 % of control | [13] 98 % of control | [14] 89 % of control

CC(C)n1c(=O)nc(-c2ccccc2)c2cc3c(cc21)OCO3
inactive: [9] 106 % of control | [10] 108 % of control | [11] 91 % of control

C[n+]1cccc2c1C(=O)C(=O)c1ncccc1-2
inactive: [1] 100 % of control | [2] 108 % of control | [3] 109 % of control

CC(=O)C1(c2ccccc2)CCN(c2c3ccccc3nc3ccccc23)CC1
inactive: [15] 108 % of control | [16] 111 % of control

Cn1c(O)c(N=NC(N)=S)c2ccccc21
inactive: [17] 95 % of control | dose: 200.0 mg/kg/injection, schedule: Q04DX003 (ip), vehicle: saline with Tween-80 87 % of control

Cc1cccc(C)c1NC(=O)C1CN(c2c(C)cccc2C)C(=O)/C1=N\O (stereo not drawn)
inactive: [12] 111 % of control | [13] 108 % of control | [14] 103 % of control

COS(=O)(=O)C(F)(F)F
inactive: dose: 100.0 mg/kg/injection, schedule: Q01DX001 (ip), vehicle: saline 111 % of control | dose: 200.0 mg/kg/injection, schedule: Q01DX001 (ip), vehicle: saline 111 % of control | dose: 400.0 mg/kg/injection, schedule: Q01DX001 (ip), vehicle: saline 111 % of control

OCC1OC(n2cnc3c(Cl)ncnc32)CC1O (stereo not drawn)
inactive: dose: 50.0 mg/kg/injection, schedule: Q01DX005 (ip), vehicle: saline 94 % of control | dose: 100.0 mg/kg/injection, schedule: Q01DX005 (ip), vehicle: saline 92 % of control | dose: 200.0 mg/kg/injection, schedule: Q01DX005 (ip), vehicle: saline 102 % of control

CCC(=O)NN(Cn1c(=S)sc2ccccc21)Cn1c(=S)sc2ccccc21
inactive: [18] 99 % of control | [19] 89 % of control | [20] 93 % of control

Nc1cc(N2C(=O)c3ccccc3C2=O)ccc1Cl
inactive: [12] 109 % of control | [13] 109 % of control | [14] 100 % of control

Cc1nc2c(ccc3ccccc32)s1
inactive: [18] 106 % of control | [19] 100 % of control | [20] 100 % of control

COC(=O)CCCC(NC(=O)c1ccc([N+](=O)[O-])cc1)C(=O)OC (stereo not drawn)
inactive: [3] 98 % of control | [5] 96 % of control | [4] 96 % of control

O=[n+]1ccn([O-])c2ccccc21.[Mn].[O-][Cl+3]([O-])([O-])O
inactive: [17] 118 % of control

COc1ccc2c(c1)O[C@H]1c3ccc(O)cc3OC[C@@H]21
inactive: [12] 100 % of control | [13] 91 % of control | [14] 91 % of control

OCC(O)C(O)C(O)C(O)CO (stereo not drawn)
inactive: dose: 400.0 mg/kg/injection, schedule: Q01DX009 (ip), vehicle: saline 107 % of control | dose: 1200.0 mg/kg/injection, schedule: Q01DX009 (ip), vehicle: saline 110 % of control | dose: 1600.0 mg/kg/injection, schedule: Q01DX005 (ip), vehicle: saline 106 % of control | dose: 2400.0 mg/kg/injection, schedule: Q01DX005 (ip), vehicle: saline 104 % of control

OC(CCl)Cn1nc2ccc3ccccc3c2n1 (stereo not drawn)
inactive: [18] 102 % of control | [19] 100 % of control | [15] 103 % of control | [20] 101 % of control | [16] 102 % of control | dose: 400.0 mg/kg/injection, schedule: Q04DX003 (ip), vehicle: Klucel (hydroxypropylcellulose) (HPC) 96 % of control

NC(C(=O)O)C(CC(=O)O)c1ccc(O)cc1 (stereo not drawn)
inactive: dose: 50.0 mg/kg/injection, schedule: Q01DX007 (ip), vehicle: saline 100 % of control | dose: 100.0 mg/kg/injection, schedule: Q01DX007 (ip), vehicle: saline 100 % of control | dose: 200.0 mg/kg/injection, schedule: Q01DX007 (ip), vehicle: saline 101 % of control

O=C1CSC(=S)N1c1ccc(Br)cc1
inactive: [9] 106 % of control | [10] 105 % of control | [11] 108 % of control

Clc1ccc(OCCC(Cn2ccnc2)c2ccc(Cl)cc2Cl)c(Cl)c1 (stereo not drawn)
inactive: [1] 113 % of control | [2] 112 % of control | [3] 101 % of control

CCC/C=C/C1SCC(=O)N1c1nncs1 (stereo not drawn)
inactive: [12] 102 % of control | [13] 103 % of control | [14] 117 % of control

CCOC(=O)C(C(=O)COC)C(=O)OCC
inactive: dose: 12.5 mg/kg/injection, schedule: Q01DX009 (ip), vehicle: water 100 % of control | dose: 25.0 mg/kg/injection, schedule: Q01DX009 (ip), vehicle: water 99 % of control | dose: 50.0 mg/kg/injection, schedule: Q01DX009 (ip), vehicle: water 99 % of control | dose: 100.0 mg/kg/injection, schedule: Q01DX009 (ip), vehicle: water 98 % of control | dose: 200.0 mg/kg/injection, schedule: Q01DX009 (ip), vehicle: water 97 % of control

O=[N+]([O-])c1ccc(-c2nc(/C=N/N3CCCCC3)cs2)o1
inactive: [2] 100 % of control | [3] 100 % of control | [5] 99 % of control

CC(=O)Nc1ccc(S(=O)(=O)Oc2noc3ccccc23)cc1
inactive: [18] 108 % of control | [19] 96 % of control | [20] 102 % of control

C=C1C(=O)OC2C(OC(C)=O)CCCC12 (stereo not drawn)
inactive: dose: 60.0 mg/kg/injection, schedule: Q01DX005 (ip), vehicle: Klucel (hydroxypropylcellulose) (HPC) 112 % of control | dose: 120.0 mg/kg/injection, schedule: Q01DX005 (ip), vehicle: Klucel (hydroxypropylcellulose) (HPC) 103 % of control | dose: 240.0 mg/kg/injection, schedule: Q01DX005 (ip), vehicle: Klucel (hydroxypropylcellulose) (HPC) 108 % of control

N/N=C1/C=Cc2cccc3cccc1c23
inactive: [12] 89 % of control | [13] 89 % of control

O=C1OCCCCOC(=O)c2ccccc2SSc2ccccc21
inactive: [6] 90 % of control | [7] 99 % of control | [8] 99 % of control
